Assay results from patent US8642554B2, “Smac mimetic dimers and trimers useful as anti-cancer agents” (Joyant Pharmaceuticals, Inc., priority 2007, dated 2014).

Assays:
[1] = biological target: truncated XIAP containing only BIR1, BIR2, and BIR3 domains (Homo sapiens, UniProt P98170); assay: Fluorescent polarization (FP) assay; format: binding
Description: Increasing concentrations of Smac compounds are incubated with 2 nM of labeled peptide (fluorescein labeled 10mer peptide with AVPI 4 amino acids at its N terminus-Alexa Fluor 488) and truncated XIAP containing only BIR1, BIR2, and BIR3 domains at room temperature for 1 hour. Fluorescence reading, indicative of the bound portion of the labeled peptide, is measured in milipolarization units (mP). The more compound added, less fluorescein labeled peptide bind to the protein due to the competitive binding and less fluorescence signal is released.
Based on this principle, we obtain the Ki value that evaluates compound's binding affinity.

[2] = test system: Caspase3 activity in Hela S100 (blocked by IAPs); assay: In vitro caspase-3 activation assay in Hela S100; format: biochemical; conditions: 100 nM compound, activity compared with reference compound, Table 1 experiment
Description: Caspase3 in most cell extracts can be activated by the addition of 1 mM dATP through the mitochondria caspase pathway. […] Taking advantage of this feature, we use 100 nM of synthetic Smac mimetic compound to test its ability to eliminate IAPs in the Hela S100 and fully induce Caspase3 activity. The In Vitro Caspase3 assay is carried out at 30° C., incubating 100 nM compounds with 30 ug of Hela S100, 1 mM dATP, 10 uM Caspase3 fluorogenic substrate (Caspase3 Substrate II, Fluorogenic, #235425 from Calbiochem). The readout is caspase-3 activity represented by relative fluorogenic unit, which is recorded kinetically. The slope in linear region of the curve for each compound is calculated.
Percent activity data is presented by comparing activity of the test compound with activity of the reference compound in Caspase-3 activation assay in vitro. The ratio of each synthetic compound's slope versus the slope of control reflects in vitro caspase-3 activation ability of compounds.

HCC461 cells = assay: Cell viability assay in HCC461 cells (WST-1); format: cell-based; conditions: 48 hrs incubation
Description: HCC461 cells plated in 96 well plates at 5×10^4/ml cell density are treated with 50× synthetic Smac mimetic compounds (final concentration range between 30 uM and 0.001 uM). After 48 hrs incubation at 37° C. and 5% CO2 viability of the cells are measured using Cell Proliferation Reagent WST-1 assay kit (Roche Cat #11 644 807 001).
WST-1 assay principle: The tetrazolium salts are cleaved to formazan by cellular enzymes. An expansion in the number of viable cells results in an increase in the overall activity of mitochondrial dehydrogenases in the samples. This augmentation in the enzyme activity leads to an increase in the amount of formazan dye formed, which directly correlates to the number of metabolically active cells in the culture. Quantification of the formazan dye produced by metabolically active cells by using a microplate (ELISA) reader at 420-480 nm.

[3] = HCC461, 48 h, Table 1 experiment
[4] = HCC461, 48 h, Table 2 experiment

Chain of truncated XIAP containing only BIR1, BIR2, and BIR3 domains (P98170 26-330 limits assumed): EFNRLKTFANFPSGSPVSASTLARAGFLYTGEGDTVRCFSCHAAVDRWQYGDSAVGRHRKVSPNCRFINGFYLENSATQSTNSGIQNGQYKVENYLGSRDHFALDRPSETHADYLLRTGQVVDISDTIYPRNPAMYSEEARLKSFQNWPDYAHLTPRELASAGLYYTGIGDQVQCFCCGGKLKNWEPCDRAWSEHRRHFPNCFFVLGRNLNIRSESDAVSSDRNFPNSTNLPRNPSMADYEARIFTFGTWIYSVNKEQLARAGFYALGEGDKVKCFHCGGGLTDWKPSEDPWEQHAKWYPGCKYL

Ki ([1]; Table 1 experiment) | % Activity at 100 nM [2] | IC50 (HCC461 cells; [3]) | Ki ([1]; Table 2 experiment) | IC50 (HCC461 cells; [4]) | Compound | also measured
– | – | – | 0.29 µM | 0.008 µM | CN[C@@H](C)C(=O)N[C@H](C(=O)N1C[C@@H](NC(=O)[C@H]2CC[C@@](C)(C(=O)N[C@H]3C[C@@H](C(=O)N[C@@H]4CCCc5ccccc54)N(C(=O)[C@@H](NC(=O)[C@H](C)NC)C(C)(C)C)C3)C2(C)C)C[C@H]1C(=O)N[C@@H]1CCCc2ccccc21)C(C)(C)C [compound 30] | –
– | – | – | 0.23 µM | 0.002 µM | CN[C@@H](C)C(=O)N[C@H](C(=O)N1C[C@@H](NC(=O)c2c(F)c(F)c(F)c(C(=O)N[C@H]3C[C@@H](C(=O)N[C@@H]4CCCc5ccccc54)N(C(=O)[C@@H](NC(=O)[C@H](C)NC)C(C)(C)C)C3)c2F)C[C@H]1C(=O)N[C@@H]1CCCc2ccccc21)C(C)(C)C [compound 28] | –
– | – | – | 0.25 µM | 0.024 µM | CN[C@@H](C)C(=O)NC(C(=O)C1C[C@@H](NC(=O)C2CCCC(C(=O)N[C@H]3CC(C(=O)N[C@@H]4CCCc5ccccc54)N(C(=O)[C@@H](NC(=O)[C@H](C)NC)C(C)(C)C)C3)C2)CC1C(=O)N[C@@H]1CCCc2ccccc21)C(C)(C)C (stereo partly shown) [compound 25] | –
– | – | 0.263 µM | – | – | C#CC[C@H](NC(=O)[C@H](C)NC)C(=O)N1C[C@@H](NC(=O)[C@H](O)[C@@H](O)C(=O)N[C@H]2C[C@@H](C(=O)N[C@@H]3CCCc4ccccc43)N(C(=O)[C@H](CC#C)NC(=O)[C@H](C)NC)C2)C[C@H]1C(=O)N[C@@H]1CCCc2ccccc21 [compound 22] | –
– | – | – | 0.32 µM | 0.023 µM | CN[C@@H](C)C(=O)N[C@H](C(=O)N1C[C@@H](NC(=O)CC(C)(O)CC(=O)N[C@H]2C[C@@H](C(=O)N[C@@H]3CCCc4ccccc43)N(C(=O)[C@@H](NC(=O)[C@H](C)NC)C(C)(C)C)C2)C[C@H]1C(=O)N[C@@H]1CCCc2ccccc21)C(C)(C)C [compound 26] | –
– | – | – | 0.34 µM | 0.003 µM | CN[C@@H](C)C(=O)N[C@H](C(=O)N1C[C@@H](NC(=O)[C@@H]2CC[C@](C)(C(=O)N[C@H]3C[C@@H](C(=O)N[C@@H]4CCCc5ccccc54)N(C(=O)[C@@H](NC(=O)[C@H](C)NC)C(C)(C)C)C3)C2(C)C)C[C@H]1C(=O)N[C@@H]1CCCc2ccccc21)C(C)(C)C [compound 31] | –
– | – | – | 0.24 µM | 0.005 µM | CN[C@@H](C)C(=O)N[C@H](C(=O)N1C[C@@H](NC(=O)C23CC4CC(C2)CC(C(=O)N[C@H]2C[C@@H](C(=O)N[C@@H]5CCCc6ccccc65)N(C(=O)[C@@H](NC(=O)[C@H](C)NC)C(C)(C)C)C2)(C4)C3)C[C@H]1C(=O)N[C@@H]1CCCc2ccccc21)C(C)(C)C [compound 29] | –
– | – | – | 0.25 µM | 0.082 µM | CN[C@@H](C)C(=O)N[C@H](C(=O)N1C[C@@H](NC(=O)COCC(=O)N[C@H]2C[C@@H](C(=O)N[C@@H]3CCCc4ccccc43)N(C(=O)[C@@H](NC(=O)[C@H](C)NC)C(C)(C)C)C2)C[C@H]1C(=O)N[C@@H]1CCCc2ccccc21)C(C)(C)C [compound 27] | –
– | – | – | 0.23 µM | 0.015 µM | CN[C@@H](C)C(=O)N[C@H](C(=O)N1C[C@@H](NC(=O)c2cc(N)cc(C(=O)N[C@H]3C[C@@H](C(=O)N[C@@H]4CCCc5ccccc54)N(C(=O)[C@@H](NC(=O)[C@H](C)NC)C(C)(C)C)C3)c2)C[C@H]1C(=O)N[C@@H]1CCCc2ccccc21)C(C)(C)C [compound 32] | –
– | – | – | 0.05 µM | – | CN[C@@H](C)C(=O)NC(C(=O)C1C[C@@H](NC(=O)C2CCCC2C(=O)N[C@H]2CC(C(=O)N[C@@H]3CCCc4ccccc43)N(C(=O)[C@@H](NC(=O)[C@H](C)NC)C(C)(C)C)C2)CC1C(=O)N[C@@H]1CCCc2ccccc21)C(C)(C)C (stereo partly shown) [compound 23] | IC50 (HCC461 cells; Table 2 experiment): 0.002 µM
– | – | – | 0.35 µM | – | CN[C@@H](C)C(=O)NC(C(=O)C1C[C@@H](NC(=O)C2CCCC2C(=O)N[C@H]2CC(C(=O)N[C@@H]3CCCc4ccccc43)N(C(=O)[C@@H](NC(=O)[C@H](C)NC)C(C)(C)C)C2)CC1C(=O)N[C@@H]1CCCc2ccccc21)C(C)(C)C (stereo partly shown) [compound 24] | IC50 (HCC461 cells; Table 2 experiment): 0.021 µM

More lines, now with the values behind:

Compound | Ki ([1]; Table 1 experiment) | % Activity at 100 nM [2] | IC50 (HCC461 cells; [3]) | Ki ([1]; Table 2 experiment) | IC50 (HCC461 cells; [4]) | also measured
CN[C@@H](C)C(=O)NC(C(=O)C1C[C@@H](NC(=O)C2CCCC2C(=O)N[C@H]2CC(C(=O)N[C@@H]3CCCc4ccccc43)N(C(=O)[C@@H](NC(=O)[C@H](C)NC)C(C)(C)C)C2)CC1C(=O)N[C@@H]1CCCc2ccccc21)C(C)(C)C.Cl.Cl (single isomer, unassigned) [compound 18] | 0.35 µM | – | – | – | – | % Activity at 100 nM ([2]; 0.1 µM): 107%; IC50 (HCC461 cells; Table 1 experiment): 0.033 µM
CN[C@@H](C)C(=O)N[C@H](C(=O)N1C[C@@H](NC(=O)c2ccc(C(=O)N[C@H]3C[C@@H](C(=O)N[C@@H]4CCCc5ccccc54)N(C(=O)[C@@H](NC(=O)[C@H](C)NC)C(C)(C)C)C3)s2)C[C@H]1C(=O)N[C@@H]1CCCc2ccccc21)C(C)(C)C.Cl.Cl [compound 12] | 0.4 µM | 104% | 0.002 µM | – | – | –
CN[C@@H](C)C(=O)NC(C(=O)C1C[C@@H](NC(=O)C2CCCC2C(=O)N[C@H]2CC(C(=O)N[C@@H]3CCCc4ccccc43)N(C(=O)[C@@H](NC(=O)[C@H](C)NC)C(C)(C)C)C2)CC1C(=O)N[C@@H]1CCCc2ccccc21)C(C)(C)C.Cl.Cl (single isomer, unassigned) [compound 17] | 0.5 µM | – | 0.019 µM | – | – | % Activity at 100 nM ([2]; 0.1 µM): 92%
CN[C@@H](C)C(=O)N[C@H](C(=O)N1C[C@@H](NC(=O)c2cc(C(=O)N[C@H]3C[C@@H](C(=O)N[C@@H]4CCCc5ccccc54)N(C(=O)[C@@H](NC(=O)[C@H](C)NC)C(C)(C)C)C3)[nH]n2)C[C@H]1C(=O)N[C@@H]1CCCc2ccccc21)C(C)(C)C.Cl.Cl [compound 15] | 0.45 µM | 116% | 0.009 µM | – | – | –
CN[C@@H](C)C(=O)N[C@@H](CC#CC#CC[C@H](NC(=O)[C@H](C)NC)C(=O)N1CCC[C@H]1C(=O)N[C@@H]1CCCc2ccccc21)C(=O)N1CCC[C@H]1C(=O)N[C@@H]1CCCc2ccccc21.Cl.Cl [Ref cpd, reference compound] | 0.35 µM | 100% | 0.082 µM | 0.15 µM | 0.063 µM | –
CN[C@@H](C)C(=O)N[C@H](C(=O)N1C[C@@H](NS(=O)(=O)c2cccc(S(=O)(=O)N[C@H]3C[C@@H](C(=O)N[C@@H]4CCCc5ccccc54)N(C(=O)[C@@H](NC(=O)[C@H](C)NC)C(C)(C)C)C3)c2)C[C@H]1C(=O)N[C@@H]1CCCc2ccccc21)C(C)(C)C.Cl.Cl [compound 13] | 0.3 µM | 108% | 0.026 µM | – | – | –
CN[C@@H](C)C(=O)N[C@H](C(=O)N1C[C@@H](NC(=O)[C@H](O)[C@@H](O)C(=O)N[C@H]2C[C@@H](C(=O)N[C@@H]3CCCc4ccccc43)N(C(=O)[C@@H](NC(=O)[C@H](C)NC)C(C)(C)C)C2)C[C@H]1C(=O)N[C@@H]1CCCc2ccccc21)C(C)(C)C [compound 21] | – | – | 0.101 µM | – | – | –
C#CC[C@H](NC(=O)[C@H](C)NC)C(=O)N1C[C@@H](NC(=O)c2cccc(C(=O)N[C@H]3C[C@@H](C(=O)N[C@@H]4CCCc5ccccc54)N(C(=O)[C@H](CC#C)NC(=O)[C@H](C)NC)C3)n2)C[C@H]1C(=O)N[C@@H]1CCCc2ccccc21 [compound 20] | – | – | 0.222 µM | – | – | –
CN[C@@H](C)C(=O)N[C@H](C(=O)N1C[C@@H](NC(=O)CN(C)CC(=O)N[C@H]2C[C@@H](C(=O)N[C@@H]3CCCc4ccccc43)N(C(=O)[C@@H](NC(=O)[C@H](C)NC)C(C)(C)C)C2)C[C@H]1C(=O)N[C@@H]1CCCc2ccccc21)C(C)(C)C.Cl.Cl.Cl [compound 16] | 0.4 µM | 115% | 0.074 µM | – | – | –
CN[C@@H](C)C(=O)N[C@H](C(=O)N1C[C@@H](NC(=O)c2cc(O)cc(C(=O)N[C@H]3C[C@@H](C(=O)N[C@@H]4CCCc5ccccc54)N(C(=O)[C@@H](NC(=O)[C@H](C)NC)C(C)(C)C)C3)c2)C[C@H]1C(=O)N[C@@H]1CCCc2ccccc21)C(C)(C)C.Cl.Cl [compound 14] | 0.44 µM | 86% | 0.026 µM | – | – | –
CN[C@@H](C)C(=O)NC(C(=O)C1C[C@@H](NC(=O)c2cccc(C(=O)N[C@H]3CC(C(=O)N[C@@H]4CCCc5ccccc54)N(C(=O)[C@@H](NC(=O)[C@H](C)NC)C(C)(C)C)C3)c2)CC1C(=O)N[C@@H]1CCCc2ccccc21)C(C)(C)C.Cl.Cl (stereo partly shown) [compound 19] | 0.45 µM | 120% | 0.007 µM | – | – | –
